Measurements taken from the supplement of paper PMC10307832.

What was measured:
Test in all cases: relative viability (nuclei count vs DMSO), 5 days (fraction); higher = more cells survive
[1] = compound: CN(NC(=O)CC(=O)NN(C)C(=S)c1ccccc1)C(=S)c1ccccc1 [Elesclomol] + CC1(C)CCC(c2ccc(Cl)cc2)=C(CN2CCN(c3ccc(C(=O)NS(=O)(=O)c4ccc(N[C@H](CCN5CCOCC5)CSc5ccccc5)c(S(=O)(=O)C(F)(F)F)c4)cc3)CC2)C1 [Navitoclax] (partner 0.5 µM)
In short: (§1)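 For relative viability, nuclei counts in treated wells were divided by those in vehicle wells. Lung cancer cell lines had been pin-tool dosed in 1536-well plates the day after seeding and cultured for 5 days, then fixed and stained in one step (final 0.05% Triton X-100, 1% formaldehyde, 1 ug/ml Hoechst) and imaged at 4×. Doses were one drug alone or a fixed anchor-drug dose plus five library-drug doses (not always all listed) in √10 steps, and values are duplicate-plate medians.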

[2] = compound: CN(NC(=O)CC(=O)NN(C)C(=S)c1ccccc1)C(=S)c1ccccc1 [Elesclomol] + Nc1ncn([C@H]2C[C@H](O)[C@@H](CO)O2)c(=O)n1 [Decitabine] (partner 2 µM)
In short: as §1

[3] = compound: CN(NC(=O)CC(=O)NN(C)C(=S)c1ccccc1)C(=S)c1ccccc1 [Elesclomol] + CCNC(=O)c1noc(-c2cc(C(C)C)c(O)cc2O)c1-c1ccc(CN2CCOCC2)cc1 [Luminespib] (partner 0.01 µM)
In short: as §1

[4] = compound: CN(NC(=O)CC(=O)NN(C)C(=S)c1ccccc1)C(=S)c1ccccc1 [Elesclomol] + NC(=O)Nc1cc(-c2cccc(F)c2)sc1C(=O)N[C@H]1CCCNC1 [AZD7762] (partner 0.2 µM)
In short: as §1

[5] = compound: CN(NC(=O)CC(=O)NN(C)C(=S)c1ccccc1)C(=S)c1ccccc1 [Elesclomol] + CC(=O)Nc1cccc(-n2c(=O)n(C3CC3)c(=O)c3c(Nc4ccc(I)cc4F)n(C)c(=O)c(C)c32)c1 [Trametinib] (partner 0.02 µM)
In short: as §1

Row | Cell Line | relative viability ([1]; first compound 0.003162 µM) | relative viability ([1]; first compound 0.01 µM) | relative viability ([1]; first compound 0.03162 µM) | relative viability ([1]; first compound 0.1 µM) | relative viability ([2]; first compound 0.003162 µM) | relative viability ([2]; first compound 0.01 µM) | relative viability ([2]; first compound 0.03162 µM) | relative viability ([2]; first compound 0.1 µM) | relative viability ([3]; first compound 0.003162 µM) | relative viability ([3]; first compound 0.01 µM) | relative viability ([3]; first compound 0.03162 µM) | relative viability ([3]; first compound 0.1 µM) | relative viability ([4]; first compound 0.003162 µM) | relative viability ([4]; first compound 0.01 µM) | relative viability ([4]; first compound 0.03162 µM) | relative viability ([4]; first compound 0.1 µM) | relative viability ([5]; first compound 0.003162 µM) | relative viability ([5]; first compound 0.01 µM) | relative viability ([5]; first compound 0.03162 µM) | relative viability ([5]; first compound 0.1 µM)
1 | A549 | 0.798 | 0.181 | 0.0437 | 0.03 | 0.293 | 0.22 | 0.261 | 0.133 |  |  |  |  |  |  |  |  |  |  |  | 
2 | ABC-1 |  |  |  |  | 0.409 | 0.345 | 0.318 | 0.279 | 0.254 | 0.206 | 0.322 | 0.223 | 0.294 | 0.252 | 0.309 | 0.236 |  |  |  | 
3 | COR-L23 | 0.9 | 0.616 | 0.461 | 0.0852 | 0.439 | 0.347 | 0.282 | 0.163 | 0.598 | 0.316 | 0.206 | 0.0873 |  |  |  |  | 0.55 | 0.22 | 0.239 | 0.101
4 | COR-L 105 | 0.682 | 0.427 | 0.421 | 0.236 | 0.666 | 0.465 | 0.337 | 0.303 | 0.721 | 0.161 | 0.307 | 0.164 |  |  |  |  | 0.465 | 0.478 | 0.316 | 0.311
5 | LCLC-103H |  |  |  |  | 0.765 | 0.686 | 0.734 | 0.742 | 0.903 | 0.734 | 1.01 | 0.435 | 0.817 | 0.639 | 0.863 | 0.692 | 0.637 | 0.671 | 0.686 | 0.683
6 | NCI-H358 |  |  |  |  | 0.171 | 0.108 | 0.0885 | 0.0726 | 0.194 | 0.141 | 0.137 | 0.117 | 0.305 | 0.182 | 0.161 | 0.102 | 0.107 | 0.103 | 0.0862 | 0.0746
7 | NCI-H520 | 1.08 | 0.939 | 0.587 | 0.162 | 0.526 | 0.411 | 0.313 | 0.143 | 0.238 | 0.188 | 0.193 | 0.164 |  |  |  |  | 0.789 | 0.65 | 0.301 | 0.137
8 | NCI-H522 |  |  |  |  | 0.693 | 0.649 | 0.7 | 0.469 | 0.958 | 1.02 | 1.06 | 0.625 | 0.955 | 0.857 | 0.756 | 0.518 | 0.698 | 0.792 | 0.821 | 0.403
9 | NCI-H650 |  |  |  |  | 0.343 | 0.281 | 0.211 | 0.16 | 0.791 | 0.401 | 0.196 | 0.18 | 1.23 | 0.848 | 0.387 | 0.23 | 1.02 | 0.709 | 0.265 | 0.191
10 | NCI-H661 |  |  |  |  | 0.58 | 0.468 | 0.296 | 0.239 | 0.845 | 0.326 | 0.282 | 0.214 |  |  |  |  | 0.565 | 0.404 | 0.314 | 0.244
11 | NCI-H1650 | 0.734 | 0.331 | 0.168 | 0.0893 | 0.306 | 0.219 | 0.16 | 0.0942 | 0.156 | 0.206 | 0.201 | 0.148 |  |  |  |  | 0.202 | 0.188 | 0.116 | 0.102
12 | NCI-H1703 | 0.141 | 0.0995 | 0.116 | 0.107 |  |  |  |  |  |  |  |  | 0.132 | 0.0974 | 0.124 | 0.0978 |  |  |  | 
13 | NCI-H2009 | 1.17 | 0.567 | 0.277 | 0.11 | 0.425 | 0.245 | 0.173 | 0.118 | 0.977 | 0.494 | 0.167 | 0.116 |  |  |  |  | 0.283 | 0.259 | 0.15 | 0.0957
14 | NCI-H2023 | 0.99 | 0.455 | 0.111 | 0.102 | 0.219 | 0.181 | 0.0903 | 0.0614 | 0.658 | 0.376 | 0.134 | 0.0435 |  |  |  |  | 0.469 | 0.149 | 0.0579 | 0.045
15 | NCI-H2228 | 0.739 | 0.586 | 0.325 | 0.0519 |  |  |  |  | 0.163 | 0.152 | 0.123 | 0.0703 |  |  |  |  | 0.573 | 0.228 | 0.177 | 0.0514
16 | NCI-H2342 |  |  |  |  | 0.697 | 0.866 | 0.784 | 0.602 | 0.665 | 0.551 | 0.391 | 0.322 | 0.385 | 0.461 | 0.4 | 0.441 | 0.877 | 0.839 | 0.756 | 0.616
17 | SK-LU-1 | 1.08 | 0.704 | 0.167 | 0.172 | 0.679 | 0.575 | 0.481 | 0.468 | 0.206 | 0.193 | 0.158 | 0.124 |  |  |  |  | 0.517 | 0.316 | 0.287 | 0.338
18 | SK-MES-1 | 1.28 | 0.97 | 1.03 | 0.385 | 0.425 | 0.306 | 0.213 | 0.172 | 0.922 | 0.713 | 0.274 | 0.295 |  |  |  |  | 0.584 | 0.635 | 0.501 | 0.415
19 | SW 1573 | 0.918 | 0.102 | 0.0652 | 0.0513 | 0.173 | 0.111 | 0.0529 | 0.0067 | 0.154 | 0.0972 | 0.0704 | 0.0142 |  |  |  |  | 0.192 | 0.115 | 0.0701 | 0.0281
20 | UMC-11 | 0.277 | 0.311 | 0.22 | 0.143 | 0.674 | 0.582 | 0.276 | 0.359 | 1.04 | 1.02 | 0.604 | 0.413 |  |  |  |  | 0.703 | 0.653 | 0.407 | 0.369
